Results from patent US7749992B2, “Compounds and methods for treating dislipidemia” (Eli Lilly and Company, priority 2003, dated 2010).

Each molecule was assayed on transgenic mice that express both human CETP and human apolipoprotein A-1 (assay: Assay of plasma lipids in vivo (elevation of HDL cholesterol)). Conditions: single oral dose 30 mg/kg; at 8 hr; serum HDL cholesterol relative to control.
Protocol: Activity of compounds of this invention in vivo can be determined by the level of elevation of HDL cholesterol relative to control by a given amount of compound in a CETP-containing animal species. A strain of transgenic mice that express both human CETP and human apolipoprotein A-1 (Taconic, Germantown, N.Y.) is used to test compounds of this invention. Test compounds are administered once orally in selected aqueous or oil based vehicles. At various times after dosing, ranging from 4 h to 24 h, blood is obtained. Blood is allowed to clot and serum is obtained by centrifugation. HDL cholesterol levels in the serum is determined by HDL-C plus reagents (Roche/Hitachi, Indianapolis, Ind.) with a clinical chemistry analyzer (Roche/Hitachi, Indianapolis, Ind.). Additional serum lipids can be analyzed by enzymatic methods. Lipids in the VLDL, LDL and HDL fractions are analyzed by enzymatic methods after precipitation or size exclusion chromatography.

Row | Structure (SMILES) | % HDL cholesterol increase [%]
1 | CC(=O)N(Cc1cc(C(F)(F)F)cc(C(F)(F)F)c1)[C@H]1CCCN(C(=O)OC(C)(C)C)c2cc(C(F)(F)F)c(C)cc21 [Example 119, (S)-5-[Acetyl-(3,5-bis-trifluoromethyl-benzyl)-amino]-7-methyl-8-trifluoromethyl-2,3,4,5-tetrahydro-benzo[b]azepine-1-carboxylic acid tert-butyl ester] | 123

The molecules below were run against T1, human CETP (Homo sapiens, UniProt P11597) (assay: In vitro CETP inhibitor assay: SPA assay). Conditions: CETP produced by AV-12 cells expressing human CETP; [3H]cholesterol ester transfer from HDL to biotinylated LDL; 30-minute incubation at 37 C; HEPES-NaCl based buffer; read-out: Inhibition of CETP Activity (SPA assay) IC50.
T1 construct: made in house; host or cells: AV-12 cells (engineered to express human CETP)
T1 sequence (P11597 18-493): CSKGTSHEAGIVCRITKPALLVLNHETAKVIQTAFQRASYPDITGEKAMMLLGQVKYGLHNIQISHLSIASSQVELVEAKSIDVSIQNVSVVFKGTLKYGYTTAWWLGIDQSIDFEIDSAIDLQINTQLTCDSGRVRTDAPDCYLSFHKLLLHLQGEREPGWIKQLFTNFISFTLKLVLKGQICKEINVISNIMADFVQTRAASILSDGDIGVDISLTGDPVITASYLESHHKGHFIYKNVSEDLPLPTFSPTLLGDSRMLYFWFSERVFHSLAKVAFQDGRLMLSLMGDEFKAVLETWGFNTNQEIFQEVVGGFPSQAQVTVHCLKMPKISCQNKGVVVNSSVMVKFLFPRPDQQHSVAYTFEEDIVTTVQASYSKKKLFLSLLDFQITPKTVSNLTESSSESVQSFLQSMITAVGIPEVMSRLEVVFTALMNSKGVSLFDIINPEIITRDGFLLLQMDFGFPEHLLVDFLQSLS
Format: biochemical
Protocol: An in vitro scintillation proximity assay (SPA) has been used to test the ability of compounds of this invention to inhibit the transfer of radiolabeled cholesterol esters between HDL and LDL. This assay monitors the inhibition of the transfer of [^3H]cholesterol esters from HDL (Amersham) to biotinylated LDL (Amersham) by a CETP source. CETP produced by AV-12 cells that have been created to express human CETP has been used to mediate the transfer. After a 30-minute incubation at 37 C in which the radiolabeled cholesterol ester is transferred in a HEPES-NaCl based buffer, the reaction is stopped and the biotinylated LDL is bound to streptavidin/scintillant coated SPA beads (Amersham). Then the radioactive signal is measured in a Packard 96-well scintillation TopCounter with window settings fully open. Compounds of this invention can be added to the reaction mixture in an appropriate solvent to assess their ability to inhibit the transfer of the radiolabeled cholesterol esters by CETP, represented by a decrease in radioactive signal. The activity transferred in the reaction mixtures with control solvents is rated as 100% transfer. The compound concentration at which the activity is midway between 100% and the lowest recorded activity is indicated as the IC50 value. A three-parameter fixed top logistic curve-fitting algorithm is used to generate the IC50 value.

Row | IC50 [nM] | Structure (SMILES)
2 | 54 | CC(=O)N(Cc1cc(C(F)(F)F)cc(C(F)(F)F)c1)C1CCCN(C(=O)OC(C)C)c2c1ccc1c2CCC1 (racemic) [Example 129, (+/−)-6-[Acetyl-(3,5-bis-trifluoromethyl-benzyl)-amino]-2,3,6,7,8,9-hexahydro-1H-10-aza-cyclohepta[e]indene-10-carboxylic acid isopropyl ester]
3 | 65 | CC(=O)N(Cc1cc(C(F)(F)F)cc(C(F)(F)F)c1)C1CCCN(C(=O)OC(C)(C)C)c2cc(C(F)(F)F)c(C)cc21 (stereo not shown) [Example 117, 5-[Acetyl-(3,5-bis-trifluoromethyl-benzyl)-amino]-7-methyl-8-trifluoromethyl-2,3,4,5-tetrahydro-benzo[b]azepine-1-carboxylic acid tert-butyl ester]
4 | 42 | CC(=O)N(Cc1cc(C(F)(F)F)cc(C(F)(F)F)c1)[C@H]1CCCN(C(=O)OC(C)(C)C)c2cc(C(F)(F)F)c(C)cc21 [Example 119, (S)-5-[Acetyl-(3,5-bis-trifluoromethyl-benzyl)-amino]-7-methyl-8-trifluoromethyl-2,3,4,5-tetrahydro-benzo[b]azepine-1-carboxylic acid tert-butyl ester]

The remaining lines, values behind:

Row | Structure (SMILES) | IC50 [nM]
5 | CC(=O)N(Cc1cc(C(F)(F)F)cc(C(F)(F)F)c1)C1CCCN(C(=O)OC(C)C)c2ccccc21 (stereo not shown) [Example 1, 5-[Acetyl-(3,5-bis-trifluoromethyl-benzyl)-amino]-2,3,4,5-tetrahydro-benzo[b]azepine-1-carboxylic acid isopropyl ester] | 293
6 | CC(=O)N(Cc1cc(C(F)(F)F)cc(C(F)(F)F)c1)[C@H]1CCCN(C(=O)OC(C)C)c2cc(C(F)(F)F)c(C)cc21 [Example 111, (S)-5-[Acetyl-(3,5-bis-trifluoromethyl-benzyl)-amino]-7-methyl-8-trifluoromethyl-2,3,4,5-tetrahydro-benzo[b]azepine-1-carboxylic acid isopropyl ester] | 68
7 | CC(=O)N(Cc1cc(C(F)(F)F)cc(C(F)(F)F)c1)C1CCCN(C(=O)OC2CCCC2)c2cc(OC(F)(F)F)c(C)cc21 (stereo not shown) [Example 182, 5-[Acetyl-(3,5-bis-trifluoromethyl-benzyl)-amino]-7-methyl-8-trifluoromethoxy-2,3,4,5-tetrahydro-benzo[b]azepine-1-carboxylic acid cyclopentyl ester] | 191
